What was measured:
[1] = 8-hour euglycemic clamp, glucose infusion rate (pharmacodynamic profile) after sc lispro ± iloprost; assay type: in vivo, human; conditions: OT2D subjects with A1c>8%, sc lispro 10 or 30 U with vs without 1 nmol iloprost
Description: Euglycemic clamp. Subjects were admitted to the Sherbrooke University Hospital Clinical Research Center (CRC) at 8 PM the evening prior to each study. An i.v. antecubital cannula was installed to allow venous sampling for immediate whole blood glucose level measurements by a glucose analyzer ([…] Glucometer, Abbott Diabetes Care Inc.) at 30-min intervals until glycemic target is reached and at 2-hour intervals thereafter. A second contralateral cannula was installed for continuous i.v. administration of regular insulin and glucose, as needed, and plasma glucose has been brought progressively into the normal target range of 5-7 mmol/L overnight and then kept at this level. Experiments started around 8 AM. Patients have been kept fasting (drinking water permitted) during the entire 8-hour clamp study. […] Plasma glucose levels were monitored every 5 min for the first 4 hours and at 10-min intervals thereafter. […] Subjects were allowed to leave when glucose levels were stabilised over 6 mmol/L. Plasma lispro was measured by an ultra-specific radioimmunoassay (Linco Research Inc.) Detection limit is 18 pmol/L, intra-assay CV is 2.5% in our hands (Gagnon-Auger M, et al. Diabetes Care 2010;33(12):2502-7). […] The fractional plasmatic lispro AUCs were calculated by the trapezoidal method. […]

[2] = 8-hour euglycemic clamp, plasma lispro (pharmacokinetic profile) after sc lispro ± iloprost; assay type: in vivo, human; conditions: OT2D subjects with A1c>8%, sc lispro 10 or 30 U with vs without 1 nmol iloprost
Description: Euglycemic clamp. Subjects were admitted to the Sherbrooke University Hospital Clinical Research Center (CRC) at 8 PM the evening prior to each study. An i.v. antecubital cannula was installed to allow venous sampling for immediate whole blood glucose level measurements by a glucose analyzer (FreeStlyle Lite Glucometer, Abbott Diabetes Care Inc.) at 30-min intervals until glycemic target is reached and at 2-hour intervals thereafter. A second contralateral cannula was installed for continuous i.v. administration of regular insulin and glucose, as needed, and plasma glucose has been brought progressively into the normal target range of 5-7 mmol/L overnight and then kept at this level. Experiments started around 8 AM. Patients have been kept fasting (drinking water permitted) during the entire 8-hour clamp study. […] Plasma glucose levels were monitored every 5 min for the first 4 hours and at 10-min intervals thereafter. […] Subjects were allowed to leave when glucose levels were stabilised over 6 mmol/L. Plasma lispro was measured by an ultra-specific radioimmunoassay (Linco Research Inc.) Detection limit is 18 pmol/L, intra-assay CV is 2.5% in our hands (Gagnon-Auger M, et al. Diabetes Care 2010;33(12):2502-7). […]
The fractional plasmatic lispro AUCs were calculated by the trapezoidal method. […]

- maximal plasma lispro concentrations ([2]; FIG. 5): rapidely increased
- lispro absorption (fractional AUCs of plasmatic lispro, 10 to 40 min) ([2]; FIG. 7): accelerated
Compound: CC#CCC(C)[C@H](O)/C=C/[C@@H]1[C@H]2C/C(=C/CCCC(=O)O)C[C@H]2C[C@H]1O (stereo partly shown) [iloprost]
- maximal glucose infusion rates ([1]; FIG. 8): rapidely increased
- hypoglycemic effect (early total glucose infusion, 30 to 60 min) ([1]; FIG. 9): accelerated
